Source: patent publication US11053212B2, “Benzimidazole derivatives as bromodomain inhibitors” (GLAXOSMITHKLINE INTELLECTUAL PROPERTY DEVELOPMENT LIMITED, priority 2015, dated 2021)
Structures can show the parent of a compound that is named as a salt.

Molecular target: T1, BRD4 BD2 (Homo sapiens, UniProt O60885, Y97A)
T1 construct: BRD4 (1-477) (Y97A) and (Y390A); made in house; host or cells: E. coli (pET15b vector)
Experiment: TR-FRET binding assay, BRD4 BD2 (mutant protein)
Settings: 10 nM mutated bromodomain protein, Alexa Fluor647 ligand at Kd, read-out: mean pIC50 in the BRD4 BD2 assay (converted)
Description: Biological Data Time Resolved Fluorescence Resonance Energy Transfer (TR-FRET) Assay
Binding was assessed using a time resolved fluorescent resonance energy transfer binding assay. This utilises a 6 His purification tag at the N-terminal of the proteins as an epitope for an anti-6 His antibody labeled with Europium chelate (PerkinElmer AD0111) allowing binding of the Europium to the proteins which acts as the donor fluorophore.
In the absence of a competing compound, excitation of the Europium causes the donor to emit at λ618 nm which excites the Alexa labelled bromodomain binding compound leading to an increased energy transfer that is measurable at λ647 nM. In the presence of a sufficient concentration of a compound that can bind these proteins, the interaction is disrupted leading to a quantifiable drop in fluorescent resonance energy transfer.
The binding of compounds of the invention to Bromodomains BRD2, BRD3, BRD4 and BRDT was assessed using mutated proteins to detect differential binding to either Binding Domain 1 (BD1) or Binding Domain 2 (BD2) on the bromodomain. […] Therefore in the final assay conditions, binding of the fluoroligand to the mutated domain cannot be detected and subsequently the assay is suitable to determine the binding of compounds to the single non-mutated bromodomain.
Recombinant Human Bromodomains [(BRD2 (1-473) (Y113A) and (Y386A), BRD3 (1-435) (Y73A) and (Y348A) BRD4 (1-477) (Y97A) and (Y390A) and BRDT (1-397) (Y66A) and (Y309A)] were expressed in E coli cells (in pET15b vector for BRD2/3/4 and in pET28a vector for BRDT) with a 6-His tag at the N-terminal. The His-tagged Bromodomain pellet was resuspended in 50 mM HEPES (pH7.5), 300 mM NaCl, 10 mM imidazole & 1 μl/ml protease inhibitor cocktail and extracted from the E coli cells using sonication and purified using a nickel sepharose high performance column, the proteins were washed and then eluted with a linear gradient of 0-500 mM imidazole with buffer 50 mM HEPES (pH7.5), 150 mM NaCl, 500 mM imidazole, over 20 column volumes. Final purification was completed by Superdex 200 prep grade size exclusion column. Purified protein was stored at −80° C. in 20 mM HEPES pH 7.5 and 100 mM NaCl.
All assay components were dissolved in buffer composition of 50 mM HEPES pH7.4, 50 mM NaCl, 5% Glycerol, 1 mM DTT and 1 mM CHAPS. The final concentration of bromodomain proteins were 10 nM and the Alexa Fluor647 ligand was at Kd. These components were premixed and 5 μl of this reaction mixture was added to all wells containing 50 nl of various concentrations of test compound or DMSO vehicle (0.5% DMSO final) in Greiner 384 well black low volume microtitre plates and incubated in dark for 30 minutes at rt. […] of detection mixture containing 1.5 nM final concentration anti-6His Europium chelate was added to all wells and a further dark incubation of at least 30 minutes was performed. Plates were then read on the Envision plate reader, (⋅ex=317 nm, donor ⋅em=615 nm; acceptor ⋅em=665 nm; Dichroic LANCE dual). Time resolved fluorescent intensity measurements were made at both emission wavelengths and the ratio of acceptor/donor was calculated and used for data analysis. All data was normalized to the mean of 16 high (inhibitor control—Example 11 of WO 2011/054846A1) and 16 low (DMSO) control wells on each plate. A four parameter curve fit of the following form was then applied: y=a+((b−a)/(1+(10^x/10^c)^d) Where ‘a’ is the minimum, […], ‘c’ is the pIC50 and […].

Row | Structure (SMILES) | IC50
1 | Cc1cc(-c2nc3cc(CN[C@@H](CC(C)C)C(=O)O)ccc3n2CCCO)c[nH]c1=O [Example 21, (S)-2-(((1-(3-hydroxypropyl)-2-(5-methyl-6-oxo-1,6-dihydropyridin-3-yl)-1H-benzo[d]imidazol-5-yl)methyl)amino)-4-methylpentanoic acid, hydrochloride] | > 50.1 µM
2 | Cc1cc(-c2nc3cc(CN[C@@H](CC(C)C)C(=O)O)ccc3n2C)c[nH]c1=O [Example 24, (S)-4-methyl-2-(((1-methyl-2-(5-methyl-6-oxo-1,6-dihydropyridin-3-yl)-1H-benzo[d]imidazol-5-yl)methyl)amino)pentanoic acid, hydrochloride] | > 50.1 µM
3 | Cc1cc(-c2nc3cc(CN[C@@H](CC(C)C)C(=O)O)ccc3n2CC2CCN(C)CC2)c[nH]c1=O [Example 48, (S)-4-methyl-2-(((2-(5-methyl-6-oxo-1,6-dihydropyridin-3-yl)-1-((1-methylpiperidin-4-yl)methyl)-1H-benzo[d]imidazol-5-yl)methyl)amino)pentanoic acid, bis hydrochloride] | > 50.1 µM
4 | Cc1cc(-c2nc3cc(CN[C@@H](CC(C)C)C(=O)O)ccc3n2C2CCN(C)CC2)c[nH]c1=O [Example 60, (S)-4-methyl-2-(((2-(5-methyl-6-oxo-1,6-dihydropyridin-3-yl)-1-(1-methylpiperidin-4-yl)-1H-benzo[d]imidazol-5-yl)methyl)amino)pentanoic acid, bis-hydrochloride] | > 50.1 µM

Molecular target: T2, recombinant human CES1 (Homo sapiens, UniProt P23141)
T2 construct: Recombinant human CES1 (Gly18-Glu563, bearing a polyhistidine tag at the C-terminus); polyhistidine (C); purchased Novoprotein, Summit, N.J., USA C450; host or cells: human cells
T2 sequence (P23141 18-563): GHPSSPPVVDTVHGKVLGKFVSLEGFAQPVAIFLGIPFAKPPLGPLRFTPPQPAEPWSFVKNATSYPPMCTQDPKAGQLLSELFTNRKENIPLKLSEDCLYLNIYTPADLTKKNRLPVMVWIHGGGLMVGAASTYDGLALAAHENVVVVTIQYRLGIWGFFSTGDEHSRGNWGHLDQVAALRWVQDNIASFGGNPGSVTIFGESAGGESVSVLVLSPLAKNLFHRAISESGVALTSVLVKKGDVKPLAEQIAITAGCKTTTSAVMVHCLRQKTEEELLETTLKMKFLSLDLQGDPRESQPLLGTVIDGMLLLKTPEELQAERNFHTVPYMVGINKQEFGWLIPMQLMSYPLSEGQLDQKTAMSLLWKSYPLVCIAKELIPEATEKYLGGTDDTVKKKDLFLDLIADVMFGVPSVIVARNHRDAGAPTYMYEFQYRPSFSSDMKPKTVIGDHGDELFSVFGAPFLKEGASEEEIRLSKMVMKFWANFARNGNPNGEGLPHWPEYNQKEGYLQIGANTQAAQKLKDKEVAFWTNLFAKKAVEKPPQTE
Experiment: Hydrolysis by hCES-1 (HPLC assay)
Type: in vitro ADME
Settings: 50 μM test compound, 50 nM CES1, 20° C., pH 7.5
Description: Hydrolysis of ESM-containing BET inhibitors by carboxylesterase 1 (CES1) is one aspect of delivering a targeted molecule. Rates of hydrolysis of certain compounds of the invention by recombinant human CES1 were determined using an HPLC assay. Recombinant human CES1 (Gly18-Glu563, bearing a polyhistidine tag at the C-terminus) expressed in human cells and purified to homogeneity was obtained from Novoprotein, Summit, N.J., USA (catalogue number C450). Reactions were run in 384 well plates at 20° C. in a buffer of 50 mM sodium phosphate pH 7.5/100 mM NaCl.
Assays used a fixed concentration of test compound (50 μM) and CES1 (50 nM) and a time course of the reaction was obtained by stopping samples at increasing times by addition of formic acid to lower the pH. Stopped samples were subsequently analysed by HPLC to resolve product acid from unhydrolysed ester, using a 50×2 mm C18 5 μM reversed-phase column (Phenomenex Gemini) at a flow rate of 1 ml/min using a gradient of acetonitrile in water, containing 0.1% formic acid. Chromatography was monitored using absorbance at 300 nm wavelength. The % of product formed was determined using integrated peak areas and used to determine the initial rate of the reaction. The specific activity of the CES1 against each test compound under these conditions (in units of μM/min/μM) was obtained by dividing the initial rate of the reaction by the CES1 concentration.

Row | Structure (SMILES) | rate of hydrolysis (specific activity of CES1 against test compound)
5 | Cc1cc(-c2nc3cc(CN[C@H](C(=O)OCC(C)C)[C@@H](C)O)ccc3n2C[C@H]2CN(C)CCO2)cn(C)c1=O (single isomer, unassigned) [Example 162a] | no detectable level of hydrolysis
6 | Cc1cc(-c2nc3cc(CN[C@H](C(=O)OC4CCCC4)C(C)C)ccc3n2CC2CCOCC2)c[nH]c1=O [Example 16, (S)-cyclopentyl 3-methyl-2-(((2-(5-methyl-6-oxo-1,6-dihydropyridin-3-yl)-1-((tetrahydro-2H-pyran-4-yl)methyl)-1-benzo[d]imidazol-5-yl)methyl)amino)butanoate] | no detectable level of hydrolysis
7 | Cc1cc(-c2nc3cc(CN[C@H](C(=O)OC4CCCC4)[C@@H](C)O)ccc3n2CC2CCOCC2)c[nH]c1=O [Example 138, (2S,3R)-cyclopentyl 3-hydroxy-2-(((2-(5-methyl-6-oxo-1,6-dihydropyridin-3-yl)-1-((tetrahydro-2H-pyran-4-yl)methyl)-1H-benzo[d]imidazol-5-yl)methyl)amino)butanoate] | no detectable level of hydrolysis
8 | Cc1cc(-c2nc3cc(CN[C@H](C(=O)OC4CCCC4)[C@@H](C)O)ccc3n2CC2CCOCC2)cn(C)c1=O [Example 156, (2S,3R)-cyclopentyl 2-(((2-(1,5-dimethyl-6-oxo-1,6-dihydropyridin-3-yl)-1-((tetrahydro-2H-pyran-4-yl)methyl)-1H-benzo[d]imidazol-5-yl)methyl)amino)-3-hydroxybutanoate] | no detectable level of hydrolysis
9 | Cc1cc(-c2nc3cc(CN[C@H](C(=O)OC(C)(C)C)[C@@H](C)O)ccc3n2CC2CCOCC2)cn(C)c1=O [Example 212, (2S,3R)-tert-butyl 2-(((2-(1,5-dimethyl-6-oxo-1,6-dihydropyridin-3-yl)-1-((tetrahydro-2H-pyran-4-yl)methyl)-1H-benzo[d]imidazol-5-yl)methyl)amino)-3-hydroxybutanoate] | no detectable level of hydrolysis
10 | Cc1cc(-c2nc3cc(CN[C@H](C(=O)O[C@H]4CCOC4)[C@@H](C)O)ccc3n2CC2CCOCC2)cn(C)c1=O [Example 214] | no detectable level of hydrolysis
11 | COC[C@H](C)n1c(-c2cc(C)c(=O)n(C)c2)nc2cc(CN[C@H](C(=O)O[C@H]3CCOC3)[C@@H](C)O)ccc21 [Example 216] | no detectable level of hydrolysis
